Results as given in patent publication US9403806B1, “Cognition enhancing compounds and compositions, methods of making, and methods of treating” (NeuroSolis, Inc., priority 2010, dated 2016).
Read-outs that look alike come from different tables or passages of the source.

Tests used:
[1] = in vitro; type: in vitro ADME; details: pH 7.4, 24 hours, room temperature
Protocol: PAMPA is a useful in vitro model for predicting the passive diffusion of drugs across the blood-brain barrier (Li, D et al Eur jour of Med Chem 38 (2003) 223-232).
Compounds were diluted in a 100 mM phosphate buffer (pH 7.4) to a concentration of 400 μM and the stock solutions were placed into a 96-well filter plate (Millipore, #MAIPN4510) pre-wetted with 20 mg/mL porcine brain polar lipid extract in 100% dodecane (Avanti, #131022) and placed into a 96-well acceptor plate (Millipore, #MSSACCEPTOR) whose wells were filled with the same phosphate buffer as in the filter plate. This assembly was incubated at room temperature for 24 hours. The experiment was halted by separating the filter plate from the acceptor plate. Aliquots were removed from the filter plate wells, acceptor plate wells, and stock solutions, and 1% trifluoroacetic acid was added to each. All solutions were measured by LC/UV, and passive diffusion rates were calculated using the peak area values (Avdeef, Alex. 2003. Page 147 in Absorption and Drug Development. Hoboken, N.J.: John Wiley & Sons).

[2] = Blood and brain concentrations (rats), tail vein injection; type: in vivo, Long-Evans Hooded rats; details: male, Long-Evans Hooded, rat, in vivo, 3 mg/kg, 3 mg/kg tail vein injection, read-out: Brain Concentration at 1 hr
Protocol: Long-Evans Hooded rats (Charles River: male, 230-300 g) were dosed with solutions of test compounds in PBS by tail vein injection. The dose for all compounds was 3 mg/kg. At one hour, the animals were anesthetized with isoflurane, and then euthanized by decapitation. Trunk blood was collected into a 1.5 mL microcentrifuge tube containing 15 U Heparin, and the plasma recovered after centrifugation. Brains were dissected, weighed, immediately chilled to 4° C., and homogenized using a PowerGen 125 homogenizer in five volumes of ice-cold 2% formic acid. Proteins were precipitated from plasma and brain homogenate with nine and five volumes respectively of ice-cold 2% formic acid and clarified by centrifugation. The supernatant was ultra-filtered by centrifugation through a 3K MWCO spin column (Pall Life Sciences), following the manufacturer's instructions. The concentration of compound in the ultra-filtrate was subjected to reverse-phase liquid chromatography using a 150×2.1 mm Agent C8 reverse-phase column on a Shimadzu Prominence LC, eluting the compounds with a gradient of 2% to 50% of acetonitrile+0.1% formic acid for all compounds. The concentration of the compound in the column effluent was measured using an Applied Biosystems API-3200 triple quadrupole mass spectrometer equipped with an electrospray sample injection system. The counts of the characteristic parent and product ions of each test compound were converted to concentration units by comparison with a standard curve.

[3] = test system: pooled male human liver microsomes; experiment: Metabolism in human liver microsomes, Example 45; type: in vitro ADME
Protocol: Aliquots were removed every 2 hours, and 1% formic acid was added to halt the reaction. Samples were centrifuged, filtered through 0.2 micron spinfilter, and the amount of each compound in the supernatants was quantitated using LC/MS/MS as follows. The ultra-filtrates were subjected to reverse-phase liquid chromatography using a 150×2.1 mm Agilent C8-reverse phase column on a Shimadzu Prominence LC, eluting the compound with a gradient of 2%-50% acetonitrile+0.1% formic acid over 5 minutes. The concentration of the compound in the column effluent was measured using an Applied Biosystems API-3200 triple quadrupole mass spectrometer equipped with a Turbo V source (electrospray sample injection) system. The counts of the characteristic parent ions of the protonated compound and product ions were converted to concentration by comparison with a standard calibration curve. The parent/daughter ion pairs that were monitored for each compound were: 166.0/82.0 (105), 166.0/82.0 (106b), 166.0/82.0 (106a), 169.0/83.0 (136), 168.2/83.0 (121), 168.1/83.0 (122a), 168.1/83.0 (122b), 170.2/83.0 (134), 168.2/84.1 (135), 168.1/84.1 (137) and 169.2/82.1 (138).

[4] = test system: muscarinic M3 receptors in the salivary glands; experiment: In vivo inositol phosphate increase in salivary glands, Example 44; set-up: species or system Long Evans Hooded rats; details: rat, 3 mg/kg sc, 5 mmole/kg LiCl
Protocol: (§1) In lithium chloride-treated laboratory rodents, engagement of muscarinic M1 receptors in the hippocampus may usefully be evaluated in vivo by measuring the increase in the tissue of inositol phosphate (Bymaster F P et al Brain Res 795 (1998) 179-190). This may also be extended to measure engagement of muscaric M3 receptors in the salivary glands.
(§2) Experimental compounds were administered subcutaneously at 3 mg/kg using standard techniques to Long Evans Hooded rats weighing 225 to 350 g, and which had been pretreated with a subcutaneous injection of lithium chloride at a suitable dose between 3 and 5 mmole/kg. At suitable times the animals were briefly anesthetized using 5% isoflurane and euthanized by decapitation. The brains and submaxillary salivary glands were rapidly dissected out, and the hippocampuses were dissected from the brains. The dissected tissues were homogenized in a suitable volume of ice-cold phosphate-buffered saline containing 10 mM lithium chloride (pH=7.4) using a tissue homogenizer, and used immediately or frozen in aliquots at −80° C. for future use. The concentration of inositol-1-phosphate was determined in the homogenates using the […] IP-One Terbium TR-FRET assay kit (Cisbio Bioassays, cat. #62IPAPEJ) according to the manufacturer's instructions.

[5] = target: T1, human muscarinic M1 receptors (Homo sapiens, UniProt P11229); type: cell-based; details: for huM1/A9L Smax: percentage of maximal stimulation by carbachol; for huM1/A9L Potency relative to carbachol: relative to the potency of carbachol at its EC50
T1 construct: host or cells: A9L cells
T1 sequence (P11229 1-460): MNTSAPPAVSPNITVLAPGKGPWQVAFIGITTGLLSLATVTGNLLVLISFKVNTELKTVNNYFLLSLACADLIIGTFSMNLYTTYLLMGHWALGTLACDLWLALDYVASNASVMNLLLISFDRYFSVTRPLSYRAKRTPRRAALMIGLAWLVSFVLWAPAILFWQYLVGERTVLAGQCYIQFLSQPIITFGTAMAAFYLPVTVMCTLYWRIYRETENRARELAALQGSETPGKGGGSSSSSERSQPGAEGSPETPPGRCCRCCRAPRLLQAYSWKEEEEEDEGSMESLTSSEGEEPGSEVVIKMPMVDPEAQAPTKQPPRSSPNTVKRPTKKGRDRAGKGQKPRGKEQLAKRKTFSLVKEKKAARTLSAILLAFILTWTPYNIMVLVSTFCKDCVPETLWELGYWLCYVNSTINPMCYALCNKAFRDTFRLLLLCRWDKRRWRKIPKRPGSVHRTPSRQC
Protocol: (§3) Muscarinic M1 and M3 agonist activity was evaluated by measuring the stimulation of inositol phosphate (IP) production in the presence of lithium chloride from A9L cells transfected with expression plasmids containing human muscarinic M1 and M3 receptors, respectively. The cell lines were a gift from Professor William Messer, and the methods were as described in Tejada et al. (J. Med. Chem. 2006; 49: 7518-31) except that the assay was scaled down to run in 384-well plates and the concentration of inositol-1-phosphate in the lysates was determined using the non-isotopic IP-One Terbium TR-FRET assay kit (Cisbio Bioassays, cat. #62IPAPEJ) according to the manufacturer's instructions.
(§4) Cells were grown to 90% confluence in 384-well high-base, small-volume plates (Greiner Bio-One), compounds were added at suitable concentrations in growth medium containing 10 mM LiCl, buffered with an extra 10 mM HEPES (pH=7.4), and incubated for 60 minutes at 37° C. Cells were lysed and assayed for IP following the manufacturer's instructions.
(§5) The value for a full agonist is 100%, while partial agonists give values below 100%.

[6] = target: T2, human muscarinic M3 receptors (Homo sapiens, UniProt P20309); type: cell-based; details: for huM3/A9L Smax: percentage of maximal stimulation by carbachol; for huM3/A9L Potency relative to carbachol: relative to the potency of carbachol at its EC50
T2 construct: host or cells: A9L cells
T2 sequence (P20309 whole entry): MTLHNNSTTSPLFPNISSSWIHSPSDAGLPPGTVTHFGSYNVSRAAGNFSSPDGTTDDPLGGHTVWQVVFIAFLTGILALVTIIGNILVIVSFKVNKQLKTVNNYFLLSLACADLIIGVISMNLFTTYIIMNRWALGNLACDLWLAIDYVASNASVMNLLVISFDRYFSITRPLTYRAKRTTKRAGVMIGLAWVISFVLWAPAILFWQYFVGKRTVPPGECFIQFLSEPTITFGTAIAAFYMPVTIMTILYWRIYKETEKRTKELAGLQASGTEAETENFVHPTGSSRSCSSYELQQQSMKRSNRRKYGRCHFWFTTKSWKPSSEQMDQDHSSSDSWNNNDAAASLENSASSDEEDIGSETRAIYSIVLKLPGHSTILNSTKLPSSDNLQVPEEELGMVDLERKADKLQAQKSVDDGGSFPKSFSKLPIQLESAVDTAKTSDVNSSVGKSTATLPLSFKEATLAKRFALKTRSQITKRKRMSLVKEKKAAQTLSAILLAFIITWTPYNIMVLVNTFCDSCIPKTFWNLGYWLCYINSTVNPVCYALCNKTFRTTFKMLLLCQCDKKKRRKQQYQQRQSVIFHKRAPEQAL
Protocol: as §3, §4, §5

[7] = test system: muscarinic M1 receptors in the hippocampus; experiment: In vivo inositol phosphate increase in hippocampus, Example 44; set-up: species or system Long Evans Hooded rats; details: rat, 3 mg/kg sc, 5 mmole/kg LiCl
Protocol: as §1, §2

[8] = test system: pooled male human liver microsomes; experiment: Metabolism by human liver microsomes, Example 33; type: in vitro ADME; details: for metabolism in human liver microsomes (in words): 6 hours incubation (FIGS. 4A, 4B); for rate of metabolism of S- versus R-enantiomer: human liver microsomes, as also in rat liver microsomes and FMO Supersomes
Protocol: Compounds were incubated with pooled male human liver microsomes (BD Biosciences, #452172) and an NADP-regenerating system in a phosphate buffer (pH 7.4) for a total of 6 hours. Aliquots were removed every 2 hours, and 1% formic acid was added to halt the reaction. Samples were centrifuged, filtered through 0.2 micron spinfilter and the amount of each compound in the supernatants was quantitated using LC/MS/MS.

[9] = target: T2, human muscarinic M3 receptors; experiment: IP production in A9L cells with human M3 receptors (IPOne TR-FRET), Example 28; type: cell-based; details: for huM3/A9L Smax: percentage of maximal stimulation by carbachol; for huM3/A9L ED50 relative to CCh*: potency relative to carbachol at its EC50, semi-quantitative
Protocol: (§6) Muscarinic M1 and M3 agonist activity was evaluated by measuring the stimulation of inositol phosphate (IP) production in the presence of lithium chloride from A9L cells transfected with expression plasmids containing human muscarinic M1 and M3 receptors, respectively. The cell lines were a gift from Professor W Messer, and the methods were as described in Tejada F R et al. J. Med. Chem. 2006; 49: 7518-31 except that the assay was scaled down to run in 384 well plates, and IP was measured in the cell lysates using the non-isotopic IPOne TR-FRET assay (CIS-BIO, Inc).
(§7) Cells were grown to 90% confluence in 384 well hi-base plates (Greiner Bio-One), compounds were added at suitable concentrations in growth medium containing 10 mM LiCl, buffered with an extra 10 mM HEPES (pH7.4), and incubated for 60 minutes at 37° C. Cells were lysed and assayed for IP following the manufacturer's instructions.
as §5

[10] = target: T1, human muscarinic M1 receptors; experiment: IP production in A9L cells with human M1 receptors (IPOne TR-FRET), Example 28; type: cell-based; details: for huM1/A9L Smax: percentage of maximal stimulation by carbachol; for huM1/A9L ED50 relative to CCh*: potency relative to carbachol at its EC50, semi-quantitative
Protocol: as §6, §7, §5

For `[2H]C([2H])([2H])c1noc(C23CNCC2C3)n1` (stereo not shown) [Compound 138, 5-(3-azabicyclo[3.1.0]hexan-1-yl)-3-methyl-d3-1,2,4-oxadiazole], the Papp at 24 h, 400 µM ([1]; PAMPA, pH 7.4, 400 μM, read-out: PAMPA Permeability Coefficient (×10^6)) was 4.1 ×10⁻⁶ cm/s, the concentration at 1 h [2] was 5.5 µM and the “Loss at 6 hrs (%)” value [3] was 29%. For the same compound, the “Increase in Inositol Phosphate in Salivary Gland/Control” value [4] was 217%, the “huM1/A9L Smax” value [5] was 93% and the “huM1/A9L Potency relative to carbachol” value [5] was 1.34. The “huM3/A9L Smax” value [6] was 43%, the “huM3/A9L Potency relative to carbachol” value [6] was 0.37 and the “Increase in Inositol Phosphate in Hippocampus/Control” value [7] was 357%.
In the case of `[2H]C([2H])([2H])c1noc([C@@H]2CCCNC2)n1` [Compound 7b, R-(−)-3-D3-methyl-5-(piperidin-3-yl)-1,2,4-oxadiazole], the “metabolism in human liver microsomes (in words)” value (from here on “metabolism … (in words)”) [8] is reported as “metabolized significantly less in human liver microsomes than in rat liver microsomes”, the “huM3/A9L Smax” value [9] is reported as 86% and the “huM3/A9L ED50 relative to CCh*” value [9] is reported as “+/− (+/− potency 0.5-2x CCh)”. The “huM1/A9L Smax” value [10] was 90% and the “huM1/A9L ED50 relative to CCh*” value [10] was “+ (+ potency 2-10x CCh)”.
With `[2H]C([2H])([2H])c1noc(C23CNC([2H])([2H])C2C3)n1` (stereo not shown) [Compound 137, 5-(6,6-d2-3-azabicyclo[3.1.0]hexan-1-yl)-3-methyl-1,2,4-oxadiazole] the “PAMPA Permeability Coefficient (×10^6)” value ([1]; 400 μM) was 4.00 ×10^6, the concentration at 1 h [2] was 5.5 µM and the “Loss at 6 hrs (%)” value [3] was 24%. The “Increase in Inositol Phosphate in Salivary Gland/Control” value ([4]; 3 mg/kg) was 198%, the “huM1/A9L Smax” value [5] was 97% and the “huM1/A9L Potency relative to carbachol” value [5] was 1.26. For the same compound, the “huM3/A9L Smax” value [6] was 62%, the “huM3/A9L Potency relative to carbachol” value [6] was 0.19 and the “Increase in Inositol Phosphate in Hippocampus/Control” value ([7]; 3 mg/kg) was 503%.
For `[2H]C([2H])([2H])c1noc([C@H]2CCCNC2)n1` [Compound 7a, S-(+)-3-D3-methyl-5-(piperidin-3-yl)-1,2,4-oxadiazole], the “metabolism … (in words)” value [8] was “metabolized significantly less in human liver microsomes than in rat liver microsomes”, the “rate of metabolism of S- versus R-enantiomer” value [8] was “metabolized faster than the R-enantiomers” and the “huM3/A9L Smax” value [9] was 76%. The “huM3/A9L ED50 relative to CCh*” value [9] was “−− (−− potency <0.1x CCh)”, the “huM1/A9L Smax” value [10] was 81% and the “huM1/A9L ED50 relative to CCh*” value [10] was “+/− (+/− potency 0.5-2x CCh)”.
In the case of `Cc1noc([C@H]2CCCNC2)n1` [Compound 3a, S-(+)-3-methyl-5-(piperidin-3-yl)-1,2,4-oxadiazole], the “metabolism … (in words)” value [8] is reported as “metabolized significantly less in human liver microsomes than in rat liver microsomes”, the “rate of metabolism of S- versus R-enantiomer” value [8] is reported as “metabolized faster than the R-enantiomers” and the “huM3/A9L Smax” value [9] is reported as 66%. The “huM3/A9L ED50 relative to CCh*” value [9] was “+/− (+/− potency 0.5-2x CCh)”, the “huM1/A9L Smax” value [10] was 129% and the “huM1/A9L ED50 relative to CCh*” value [10] was “+ (+ potency 2-10x CCh)”.
In the case of `Cc1noc([C@@H]2CCCNC2)n1` [Compound 3b, R-(−)-3-methyl-5-(piperidin-3-yl)-1,2,4-oxadiazole], the “metabolism … (in words)” value [8] is reported as “metabolized significantly less in human liver microsomes than in rat liver microsomes”, the “huM3/A9L Smax” value [9] is reported as 47% and the “huM3/A9L ED50 relative to CCh*” value [9] is reported as “− (− potency <0.5-0.1x CCh)”. The “huM1/A9L Smax” value [10] was 147% and the “huM1/A9L ED50 relative to CCh*” value [10] was “+/− (+/− potency 0.5-2x CCh)”.
